{"source": "paper PMC11571207", "about": "“Stereorandomized Oncocins with Preserved Ribosome Binding and Antibacterial Activity” (Journal of Medicinal Chemistry, 2024)", "key": {"[1]": {"system": "P. aeruginosa PA14 4.13 (phoQ)", "conditions": "for MIC P. aeruginosa PA14 4.13: supplement CSV"}, "P. aeruginosa ZEM9A": {"system": "P. aeruginosa ZEM9A", "assay": "microbe, parasite or virus in culture", "conditions": "for MIC P. aeruginosa ZEM9A: supplement CSV", "procedure": "(§1) Minimum inhibitory concentration assay\n(§2) Antimicrobial activity was assayed against P. aeruginosa PAO1, K. pneumoniae NCTC418, E. coli W3110, A. baumannii ATCC 19606, methicillin-resistant S. aureus COL (MRSA), and for selected peptides on P. aeruginosa PA14 and the polymyxin-B-resistant derivative PA14 2P4, as well as the clinical isolates ZEM-1A and ZEM9A, K. pneumoniae OXA-48, S. aureus Newman, Enterobacter cloacae and Burkholderia cenocepacia. The minimal inhibitory concentration (MIC) was determined by using broth microdilution method. A colo ny of bacteria was picked and grown in Luria-Bertani (LB) medium overnight at 37°C. For E. coli BW25113 sbmA::kan the medium was supplemented with 25 mg/L of kanamycin. The next day, the culture was then regrown in LB medium to log phase (OD600 = 0.6 to 0.8), which lasted approximately 4 h, and diluted to an OD600 of 0.022 in the desired medium. Stock solutions of 1 mg/mL of the samples were prepared in sterilized milliQ water and diluted to the beginning concentration of 64 μg/mL in 300 μL Mueller Hinton (MH)-medium. The diluted samples were added to first well of 96-well microtiter plate (TPP, untreated, Faust Laborbedarf, AG, Schaffhausen) and diluted serially by ½. Finally, 4 μL of the bacterial suspension was inoculated into the sample solutions (150 μL/well) with a final inoculation of about 5∙10^5 CFU/mL. The plates were then incubated at 37°C for 15-18h. For each assay, sterility (broth only) and growth control (broth with bacterial inoculum, without antibiotics) were checked with two columns in the plate. The next day, 15 μL of 3-(4,5-dimethylthiazol-2-yl)-2,5-diphenyltetrazolium bromide (MTT) was added to each well of the plate, such a way that MIC was defined as the lowest concentration of the peptide that inhibited visible growth of the tested"}, "P. aeruginosa PA14": {"system": "P. aeruginosa PA14", "assay": "microbe, parasite or virus in culture", "conditions": "for MIC P. aeruginosa PA14: supplement CSV", "procedure": "as §1, §2"}, "[2]": {"system": "P. aeruginosa PA14 2P4 (pmrB)", "assay": "microbe, parasite or virus in culture", "conditions": "for MIC P. aeruginosa PA14 2P4: supplement CSV", "procedure": "as §1, §2"}, "E. cloacae": {"system": "E. cloacae", "assay": "microbe, parasite or virus in culture", "conditions": "for MIC E. cloacae: supplement CSV", "procedure": "as §1, §2"}, "P. aeruginosa ZEM-1A": {"system": "P. aeruginosa ZEM-1A", "assay": "microbe, parasite or virus in culture", "procedure": "as §1, §2"}, "K. pneumoniae OXA-48": {"system": "K. pneumoniae OXA-48", "assay": "microbe, parasite or virus in culture", "conditions": "for MIC K. pneumoniae OXA-48: supplement CSV", "procedure": "as §1, §2"}, "human red blood cells": {"system": "human red blood cells", "assay": "Hemolysis assay, minimum hemolytic concentration"}, "[3]": {"conditions": "polymyxin B resistant strain, 12.5% MHB pH 7.4, 16–20 h at 37 °C"}, "[4]": {"conditions": "polymyxin B resistant strain, full MHB pH 7.4, 16–20 h at 37 °C"}}, "note": "Read-outs that look alike come from different tables or passages of the source. No end group written: not given here."}
{"sequence": "VDKPPYLPRPRPPRRIYNR [sr5Cterm-Onc] (VDKPPYLPRPRPPRRIYNR-NH2; also: residues 15-19 stereorandomized (1:1 L/D mixture))", "values": [{"measurement": "MIC P. aeruginosa PA14 4.13 (phoQ), 12.5% MHB", "setting": "[1]; [3]", "value": 8, "unit": "µg/mL"}, {"measurement": "MIC P. aeruginosa PA14 4.13 (phoQ), full MHB", "setting": "[1]; [4]", "value": 64, "unit": "µg/mL"}, {"measurement": "MIC P. aeruginosa PA14 4.13", "setting": "[1]; 12.5% MH pH 7.4", "value": 8, "unit": "µg/mL"}, {"measurement": "MIC P. aeruginosa PA14 4.13", "setting": "[1]; full MH pH 7.4", "value": 64, "unit": "µg/mL"}, {"measurement": "MIC P. aeruginosa ZEM9A, 12.5% MHB", "setting": "P. aeruginosa ZEM9A; clinical isolate, 12.5% MHB pH 7.4, 16–20 h at 37 °C", "value": 8, "unit": "µg/mL"}, {"measurement": "MIC P. aeruginosa ZEM9A, full MHB", "setting": "P. aeruginosa ZEM9A; clinical isolate, full MHB pH 7.4, 16–20 h at 37 °C", "value": "> 64", "unit": "µg/mL"}, {"measurement": "MIC P. aeruginosa ZEM9A", "setting": "P. aeruginosa ZEM9A; 12.5% MH pH 7.4", "value": 8, "unit": "µg/mL"}, {"measurement": "MIC P. aeruginosa ZEM9A", "setting": "P. aeruginosa ZEM9A; full MH pH 7.4", "value": ">64", "unit": "µg/mL"}, {"measurement": "MIC P. aeruginosa PA14, 12.5% MHB", "setting": "P. aeruginosa PA14; 12.5% MHB pH 7.4, 16–20 h at 37 °C, two different duplicate MIC determinations", "value": 8, "unit": "µg/mL"}, {"measurement": "MIC P. aeruginosa PA14, full MHB", "setting": "P. aeruginosa PA14; full MHB pH 7.4, 16–20 h at 37 °C, two different duplicate MIC determinations", "value": "> 64", "unit": "µg/mL"}, {"measurement": "MIC P. aeruginosa PA14", "setting": "P. aeruginosa PA14; 12.5% MH pH 7.4", "value": 8, "unit": "µg/mL"}, {"measurement": "MIC P. aeruginosa PA14", "setting": "P. aeruginosa PA14; full MH pH 7.4", "value": ">64", "unit": "µg/mL"}, {"measurement": "MIC P. aeruginosa PA14 2P4 (pmrB), 12.5% MHB", "setting": "[2]; [3]", "value": 2, "unit": "µg/mL"}, {"measurement": "MIC P. aeruginosa PA14 2P4 (pmrB), full MHB", "setting": "[2]; [4]", "value": "> 64", "unit": "µg/mL"}, {"measurement": "MIC P. aeruginosa PA14 2P4", "setting": "[2]; 12.5% MH pH 7.4", "value": 2, "unit": "µg/mL"}, {"measurement": "MIC P. aeruginosa PA14 2P4", "setting": "[2]; full MH pH 7.4", "value": ">64", "unit": "µg/mL"}, {"measurement": "MIC E. cloacae, 12.5% MHB", "setting": "E. cloacae; 12.5% MHB pH 7.4, 16–20 h at 37 °C", "value": 1, "unit": "µg/mL"}, {"measurement": "MIC E. cloacae, full MHB", "setting": "E. cloacae; full MHB pH 7.4, 16–20 h at 37 °C", "value": 32, "unit": "µg/mL"}, {"measurement": "MIC E. cloacae", "setting": "E. cloacae; 12.5% MH pH 7.4", "value": 1, "unit": "µg/mL"}, {"measurement": "MIC E. cloacae", "setting": "E. cloacae; full MH pH 7.4", "value": 32, "unit": "µg/mL"}, {"measurement": "MIC P. aeruginosa ZEM-1A, 12.5% MHB", "setting": "P. aeruginosa ZEM-1A; clinical isolate, 12.5% MHB pH 7.4, 16–20 h at 37 °C, cells marked c: single measurement (in duplicates)", "value": "4 to 8", "unit": "µg/mL"}, {"measurement": "MIC P. aeruginosa ZEM-1A, full MHB", "setting": "P. aeruginosa ZEM-1A; clinical isolate, full MHB pH 7.4, 16–20 h at 37 °C, cells marked c: single measurement (in duplicates)", "value": 64, "unit": "µg/mL"}, {"measurement": "MIC P. aeruginosa ZEM-1A", "setting": "P. aeruginosa ZEM-1A; supplement CSV, 12.5% MH pH 7.4", "value": "4 to 8", "unit": "µg/mL"}, {"measurement": "MIC K. pneumoniae OXA-48, 12.5% MHB", "setting": "K. pneumoniae OXA-48; carbapenem-resistant, 12.5% MHB pH 7.4, 16–20 h at 37 °C", "value": 4, "unit": "µg/mL"}, {"measurement": "MIC K. pneumoniae OXA-48, full MHB", "setting": "K. pneumoniae OXA-48; carbapenem-resistant, full MHB pH 7.4, 16–20 h at 37 °C", "value": 32, "unit": "µg/mL"}, {"measurement": "MIC K. pneumoniae OXA-48", "setting": "K. pneumoniae OXA-48; 12.5% MH pH 7.4", "value": 4, "unit": "µg/mL"}, {"measurement": "MIC K. pneumoniae OXA-48", "setting": "K. pneumoniae OXA-48; full MH pH 7.4", "value": 32, "unit": "µg/mL"}, {"measurement": "Haemolysis on hRBC, MHC", "setting": "human red blood cells; 2.5% human red blood cells (final) in 10 mM phosphate, 150 mM NaCl, pH 7.4, 25 °C, 4 h, visual inspection", "value": ">1000", "unit": "µg/mL"}, {"measurement": "MHC human red blood cells", "setting": "human red blood cells; supplement CSV", "value": ">1000", "unit": "µg/mL"}]}
